# In PubChem BioAssay AID1845208 (Molecular Pharmacology Branch, DTP, NCI, 2023):
# Tested on: NCI-H196 SCLC complex tumor spheroid viability
# Experiment: Anticancer human tumor NCI-H196 cell line growth inhibition;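 also: spheroids exposed to compounds for 7 days before readout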;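 as to viability, T/C: 100% = DMSO vehicle control wells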
# Settings: for IC50: curve of first compound; for viability, T/C: stronger effect = lower value
# Summary of the method: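 Complex spheroids of malignant cells with endothelial cells and mesenchymal stem cells; agents alone or combined, from near clinical Cmax (or 10 microM if unknown) down in half-log steps, 0.25% DMSO final.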
# [1] = second compound 30 pM, first compound 0.0316 µM
# [2] = second compound 30 pM, first compound 0.1 µM
# [3] = second compound 30 pM, first compound 0.316 µM
# [4] = second compound 30 pM, first compound 1 µM
# [5] = second compound 30 pM, first compound 3.16 µM
# [6] = second compound 30 pM, first compound 10 µM
# [7] = second compound 94.9 pM, first compound 0.0316 µM
# [8] = second compound 94.9 pM, first compound 0.1 µM
# [9] = second compound 94.9 pM, first compound 0.316 µM
# [10] = second compound 94.9 pM, first compound 1 µM
# [11] = second compound 94.9 pM, first compound 3.16 µM
# [12] = second compound 94.9 pM, first compound 10 µM
# [13] = second compound 0.0003 µM, first compound 0.0316 µM
# [14] = second compound 0.0003 µM, first compound 0.1 µM
# [15] = second compound 0.0003 µM, first compound 0.316 µM
# [16] = second compound 0.0003 µM, first compound 1 µM
# [17] = second compound 0.0003 µM, first compound 3.16 µM
# [18] = second compound 0.0003 µM, first compound 10 µM
# [19] = second compound 0.000949 µM, first compound 0.0316 µM
# [20] = second compound 0.000949 µM, first compound 0.1 µM
# [21] = second compound 0.000949 µM, first compound 0.316 µM
# [22] = second compound 0.000949 µM, first compound 1 µM
# [23] = second compound 0.000949 µM, first compound 3.16 µM
# [24] = second compound 0.000949 µM, first compound 10 µM
# [25] = second compound 0.003 µM, first compound 0.0316 µM
# [26] = second compound 0.003 µM, first compound 0.1 µM
# [27] = second compound 0.003 µM, first compound 0.316 µM
# [28] = second compound 0.003 µM, first compound 1 µM
# [29] = second compound 0.003 µM, first compound 3.16 µM
# [30] = second compound 0.003 µM, first compound 10 µM
# [31] = second compound 1 µM, first compound 0.00949 µM
# [32] = second compound 1 µM, first compound 0.03 µM
# [33] = second compound 1 µM, first compound 0.0949 µM
# [34] = second compound 1 µM, first compound 0.3 µM
# [35] = second compound 1 µM, first compound 0.949 µM
# [36] = second compound 1 µM, first compound 3 µM
# [37] = second compound 3.16 µM, first compound 0.00949 µM
# [38] = second compound 3.16 µM, first compound 0.03 µM
# [39] = second compound 3.16 µM, first compound 0.0949 µM
# [40] = second compound 3.16 µM, first compound 0.3 µM
# [41] = second compound 3.16 µM, first compound 0.949 µM
# [42] = second compound 3.16 µM, first compound 3 µM
# [43] = second compound 10 µM, first compound 0.00949 µM
# [44] = second compound 10 µM, first compound 0.03 µM
# [45] = second compound 10 µM, first compound 0.0949 µM
# [46] = second compound 10 µM, first compound 0.3 µM
# [47] = second compound 10 µM, first compound 0.949 µM
# [48] = second compound 10 µM, first compound 3 µM
# [49] = second compound 31.6 µM, first compound 0.00949 µM
# [50] = second compound 31.6 µM, first compound 0.03 µM
# [51] = second compound 31.6 µM, first compound 0.0949 µM
# [52] = second compound 31.6 µM, first compound 0.3 µM
# [53] = second compound 31.6 µM, first compound 0.949 µM
# [54] = second compound 31.6 µM, first compound 3 µM
# [55] = second compound 100 µM, first compound 0.00949 µM
# [56] = second compound 100 µM, first compound 0.03 µM
# [57] = second compound 100 µM, first compound 0.0949 µM
# [58] = second compound 100 µM, first compound 0.3 µM
# [59] = second compound 100 µM, first compound 0.949 µM
# [60] = second compound 100 µM, first compound 3 µM
structure (smiles),measurement,setting,value
CC(C)n1c(=O)n(C)c2cnc3cc(F)c(-c4ccc(OCCCN5CCCCC5)nc4)cc3c21 + COc1cc2c(cc1O)CCNC21CSC2c3c(OC(C)=O)c(C)c4c(c3C(COC1=O)N1C(O)C3Cc5cc(C)c(OC)c(O)c5C(C21)N3C)OCO4,IC50,second compound 30 pM,> 10 µM
same,IC50,second compound 94.9 pM,> 10 µM
same,IC50,second compound 0.0003 µM,> 10 µM
same,IC50,second compound 0.000949 µM,> 10 µM
same,IC50,second compound 0.003 µM,< 0.0316 µM
same,"viability, T/C",[1],104%
same,"viability, T/C",[2],106%
same,"viability, T/C",[3],106%
same,"viability, T/C",[4],104%
same,"viability, T/C",[5],114%
same,"viability, T/C",[6],107%
same,"viability, T/C",[7],106%
same,"viability, T/C",[8],107%
same,"viability, T/C",[9],105%
same,"viability, T/C",[10],107%
same,"viability, T/C",[11],123%
same,"viability, T/C",[12],112%
same,"viability, T/C",[13],103%
same,"viability, T/C",[14],112%
same,"viability, T/C",[15],111%
same,"viability, T/C",[16],112%
same,"viability, T/C",[17],116%
same,"viability, T/C",[18],104%
same,"viability, T/C",[19],93.8%
same,"viability, T/C",[20],97.7%
same,"viability, T/C",[21],92.6%
same,"viability, T/C",[22],93.7%
same,"viability, T/C",[23],106%
same,"viability, T/C",[24],95.2%
same,"viability, T/C",[25],7%
same,"viability, T/C",[26],6.41%
same,"viability, T/C",[27],9.42%
same,"viability, T/C",[28],3.31%
same,"viability, T/C",[29],2.99%
same,"viability, T/C",[30],3.29%
COc1ccc([C@@H](O)c2cc(-c3ncnc4cc(N5CCOCC5)ccc34)c(F)cc2Cl)nn1 + COc1cc2c(cc1O)CCNC21CSC2c3c(OC(C)=O)c(C)c4c(c3C(COC1=O)N1C(O)C3Cc5cc(C)c(OC)c(O)c5C(C21)N3C)OCO4,IC50,second compound 30 pM,9.14 µM
same,IC50,second compound 94.9 pM,7.24 µM
same,IC50,second compound 0.0003 µM,2.97 µM
same,IC50,second compound 0.000949 µM,0.975 µM
same,IC50,second compound 0.003 µM,< 0.0316 µM
same,"viability, T/C",[1],103%
same,"viability, T/C",[2],94.9%
same,"viability, T/C",[3],93.8%
same,"viability, T/C",[4],77.8%
same,"viability, T/C",[5],62.6%
same,"viability, T/C",[6],49%
same,"viability, T/C",[7],106%
same,"viability, T/C",[8],107%
same,"viability, T/C",[9],93.6%
same,"viability, T/C",[10],75.4%
same,"viability, T/C",[11],60%
same,"viability, T/C",[12],46%
same,"viability, T/C",[13],99%
same,"viability, T/C",[14],96.7%
same,"viability, T/C",[15],91.1%
same,"viability, T/C",[16],69.5%
same,"viability, T/C",[17],50.2%
same,"viability, T/C",[18],32.5%
same,"viability, T/C",[19],81.8%
same,"viability, T/C",[20],80.6%
same,"viability, T/C",[21],78.1%
same,"viability, T/C",[22],45.3%
same,"viability, T/C",[23],26.6%
same,"viability, T/C",[24],9.62%
same,"viability, T/C",[25],8.41%
same,"viability, T/C",[26],3.38%
same,"viability, T/C",[27],3.43%
same,"viability, T/C",[28],0.71%
same,"viability, T/C",[29],0.82%
same,"viability, T/C",[30],0.59%
CNCc1ccc(-c2cc(-c3nc(-c4ccc(S(=O)(=O)C(C)C)cc4)cnc3N)on2)cc1 + Cn1nnc2c(C(N)=O)ncn2c1=O,IC50,second compound 1 µM,> 3 µM
same,IC50,second compound 3.16 µM,> 3 µM
same,IC50,second compound 10 µM,> 3 µM
same,IC50,second compound 31.6 µM,> 3 µM
same,IC50,second compound 100 µM,> 3 µM
same,"viability, T/C",[31],100%
same,"viability, T/C",[32],92.1%
same,"viability, T/C",[33],106%
same,"viability, T/C",[34],99.5%
same,"viability, T/C",[35],84.1%
same,"viability, T/C",[36],85.2%
same,"viability, T/C",[37],98.7%
same,"viability, T/C",[38],97.4%
same,"viability, T/C",[39],104%
same,"viability, T/C",[40],105%
same,"viability, T/C",[41],88.1%
same,"viability, T/C",[42],88.2%
same,"viability, T/C",[43],100%
same,"viability, T/C",[44],96.3%
same,"viability, T/C",[45],105%
same,"viability, T/C",[46],99.5%
same,"viability, T/C",[47],95.3%
same,"viability, T/C",[48],84.4%
same,"viability, T/C",[49],102%
same,"viability, T/C",[50],113%
same,"viability, T/C",[51],106%
same,"viability, T/C",[52],105%
same,"viability, T/C",[53],91.4%
same,"viability, T/C",[54],82.9%
same,"viability, T/C",[55],107%
same,"viability, T/C",[56],109%
same,"viability, T/C",[57],112%
same,"viability, T/C",[58],99.6%
same,"viability, T/C",[59],88.3%
same,"viability, T/C",[60],84.3%
Cn1ncnc1[C@H]1c2n[nH]c(=O)c3cc(F)cc(c23)N[C@@H]1c1ccc(F)cc1 + Cn1nnc2c(C(N)=O)ncn2c1=O,IC50,second compound 1 µM,> 3 µM
same,IC50,second compound 3.16 µM,> 3 µM
same,IC50,second compound 10 µM,> 3 µM
same,IC50,second compound 31.6 µM,> 3 µM
same,IC50,second compound 100 µM,> 3 µM
same,"viability, T/C",[31],103%
same,"viability, T/C",[32],92%
same,"viability, T/C",[33],99.5%
same,"viability, T/C",[34],95.5%
same,"viability, T/C",[35],86.6%
same,"viability, T/C",[36],94%
same,"viability, T/C",[37],105%
same,"viability, T/C",[38],105%
same,"viability, T/C",[39],104%
same,"viability, T/C",[40],103%
same,"viability, T/C",[41],88.9%
same,"viability, T/C",[42],99.5%
same,"viability, T/C",[43],104%
same,"viability, T/C",[44],100%
same,"viability, T/C",[45],104%
same,"viability, T/C",[46],90.9%
same,"viability, T/C",[47],110%
same,"viability, T/C",[48],89.2%
same,"viability, T/C",[49],104%
same,"viability, T/C",[50],91.6%
same,"viability, T/C",[51],94.8%
same,"viability, T/C",[52],93.2%
same,"viability, T/C",[53],100%
same,"viability, T/C",[54],91.3%
same,"viability, T/C",[55],102%
same,"viability, T/C",[56],94.5%
same,"viability, T/C",[57],94.5%
same,"viability, T/C",[58],94.8%
same,"viability, T/C",[59],99%
same,"viability, T/C",[60],89.5%
O=C(c1cc(Cc2n[nH]c(=O)c3ccccc23)ccc1F)N1CCN(C(=O)C2CC2)CC1 + Cn1nnc2c(C(N)=O)ncn2c1=O,IC50,second compound 1 µM,> 30 µM
same,IC50,second compound 3.16 µM,> 30 µM
same,IC50,second compound 10 µM,> 30 µM
same,IC50,second compound 31.6 µM,> 30 µM
same,IC50,second compound 100 µM,> 30 µM
same,"viability, T/C",[33],102%
same,"viability, T/C",[34],102%
same,"viability, T/C",[35],93.3%
same,"viability, T/C",[36],89.1%
same,"viability, T/C","second compound 1 µM, first compound 9.49 µM",86.1%
same,"viability, T/C","second compound 1 µM, first compound 30 µM",83.7%
same,"viability, T/C",[39],97.7%
same,"viability, T/C",[40],94.3%
same,"viability, T/C",[41],104%
same,"viability, T/C",[42],98.1%
same,"viability, T/C","second compound 3.16 µM, first compound 9.49 µM",85.5%
same,"viability, T/C","second compound 3.16 µM, first compound 30 µM",79.8%
same,"viability, T/C",[45],99.6%
same,"viability, T/C",[46],97.9%
same,"viability, T/C",[47],92.6%
same,"viability, T/C",[48],95.2%
same,"viability, T/C","second compound 10 µM, first compound 9.49 µM",92.4%
same,"viability, T/C","second compound 10 µM, first compound 30 µM",90.8%
same,"viability, T/C",[51],101%
same,"viability, T/C",[52],101%
same,"viability, T/C",[53],100%
same,"viability, T/C",[54],106%
same,"viability, T/C","second compound 31.6 µM, first compound 9.49 µM",98.7%
same,"viability, T/C","second compound 31.6 µM, first compound 30 µM",86.8%
same,"viability, T/C",[57],95.6%
same,"viability, T/C",[58],96.5%
same,"viability, T/C",[59],98.7%
same,"viability, T/C",[60],87.6%
same,"viability, T/C","second compound 100 µM, first compound 9.49 µM",86.7%
same,"viability, T/C","second compound 100 µM, first compound 30 µM",76.2%
